From US20230158025A1 (UNIVERSITY OF UTAH RESEARCH FOUNDATION, priority 2020, published 2023)
Where two headings read alike, the source gives them in different places.

What was measured:
recombinant mouse GALK1 = recombinant mouse GALK1 (Mus musculus, UniProt Q9R0N0); test: mGALK1 biochemical activity assay (Kinase-Glo Plus, ATP depletion)
How it was run: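 Recombinant GALK1 (5 nM) with 100 μM galactose; GALK1 turnover read as ATP depletion by Kinase-Glo Plus luminescence. Reaction ran 1 h at room temperature before detection reagent was added.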

[1] = rat microsomal stability (RLM); details: microsomal stability half-life
[2] = aqueous kinetic solubility; details: aqueous kinetic solubility
PAMPA permeability = details: PAMPA
recombinant human GALK1 = recombinant human GALK1 (Homo sapiens, UniProt P51570); test: hGALK1 biochemical activity assay (Kinase-Glo Plus, ATP depletion)
Chain of recombinant human GALK1 (P51570 whole entry): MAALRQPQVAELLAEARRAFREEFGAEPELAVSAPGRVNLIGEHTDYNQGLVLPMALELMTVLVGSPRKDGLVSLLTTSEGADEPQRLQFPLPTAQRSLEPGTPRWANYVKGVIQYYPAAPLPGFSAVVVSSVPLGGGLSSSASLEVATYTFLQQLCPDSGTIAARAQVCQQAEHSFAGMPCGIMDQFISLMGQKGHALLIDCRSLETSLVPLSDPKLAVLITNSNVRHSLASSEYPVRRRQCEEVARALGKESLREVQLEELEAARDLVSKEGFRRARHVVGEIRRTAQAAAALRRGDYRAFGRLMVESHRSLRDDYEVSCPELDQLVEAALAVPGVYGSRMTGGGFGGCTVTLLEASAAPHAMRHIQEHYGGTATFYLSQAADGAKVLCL
How it was run: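 Turnover is measured as ATP depletion by Kinase-Glo Plus luminescence after a 1 h room-temperature reaction. Compounds span 11 concentrations, 57.4 μM–0.97 nM, in final 20 mM HEPES pH 8.0 with 5 mM MgCl2. The substrate solution held 35 μM ATP; the added solution held 5 nM human or mouse GALK1 and 100 μM galactose.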

[3] = recombinant mouse GALK1, Kinase-Glo Plus ATP depletion
[4] = recombinant human GALK1, Kinase-Glo Plus ATP depletion
[5] = Tables 2-15, 35 μM ATP, 100 μM galactose, 1 h, bracketed figure after some values is undefined and not reported, read-out: mGALK IC50
[6] = recombinant mouse GALK1, Kinase-Glo Plus ATP depletion, read-out: mGALK
[7] = Tables 2-15, 35 μM ATP, 100 μM galactose, 1 h, bracketed figure after some values (e.g. −1.2) is undefined and not reported, read-out: hGALK IC50
[8] = recombinant human GALK1, Kinase-Glo Plus ATP depletion, read-out: hGALK

Chain of recombinant mouse GALK1 (Q9R0N0 whole entry): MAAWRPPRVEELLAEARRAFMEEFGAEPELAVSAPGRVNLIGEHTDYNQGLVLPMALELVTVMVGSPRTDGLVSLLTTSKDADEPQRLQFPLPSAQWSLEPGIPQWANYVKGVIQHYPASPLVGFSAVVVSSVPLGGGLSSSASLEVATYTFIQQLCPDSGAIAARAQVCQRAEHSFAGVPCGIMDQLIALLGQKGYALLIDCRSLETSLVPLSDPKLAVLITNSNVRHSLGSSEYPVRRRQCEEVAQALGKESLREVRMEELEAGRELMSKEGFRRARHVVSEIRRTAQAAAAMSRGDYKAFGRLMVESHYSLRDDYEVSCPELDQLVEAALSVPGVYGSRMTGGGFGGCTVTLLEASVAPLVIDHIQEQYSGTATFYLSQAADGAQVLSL

Row | SMILES | mGALK (μM) (recombinant mouse GALK1; [3]) | Metab. Stabil. (m) [1] [m] | Sol. [2] [µg/mL] | Perm. (1 × 10^−6 cm/sec) (PAMPA permeability) | hGALK (μM) (recombinant human GALK1; [4]) | IC50 (recombinant mouse GALK1; [5]) [µM] | IC50 (recombinant mouse GALK1; [6]) [µM] | IC50 (recombinant human GALK1; [7]) [µM] | IC50 (recombinant human GALK1; [8]) [µM] | mGALK IC50 (recombinant mouse GALK1; Tables 2-15, 35 μM ATP, 100 μM galactose, 1 h, bracketed figure after some values is undefined and not reported) | hGALK IC50 (recombinant human GALK1; Tables 2-15, 35 μM ATP, 100 μM galactose, 1 h, bracketed figure after some values (e.g. −1.2) is undefined and not reported)
1 | COC(=O)c1ccnc(NC(=O)C2=C(C)NC(Nc3nc4ccccc4o3)=N[C@@H]2c2ccccc2Cl)c1 [Compound 207, (S)-methyl 2-(2-(benzo[d]oxazol-2-ylamino)-4-(2-chlorophenyl)-6-methyl-1,4-dihydropyrimidine-5-carboxamido)isonicotinate] | in- active | 25.55 | <1 | 250.4 1 × 10^−6 cm/sec | in- active | – | – | – | – | – | –
2 | CC1=C(C(=O)Nc2cc(C(=O)O)ccn2)[C@H](c2ccccc2Cl)N=C(Nc2nc3ccccc3o2)N1 [Compound 208, (R)-2-(2-(benzo[d]oxazol-2-ylamino)-4-(2-chlorophenyl)-6-methyl-1,4-dihydropyrimidine-5-carboxamido)isonicotinic acid] | – | >30 | >74 | <1 1 × 10^−6 cm/sec | – | 3.43 | 3.43 | 0.54 | 0.54 | – | –
3 | CC1=C(C(=O)Nc2cc(C(=O)O)ccn2)[C@@H](c2ccccc2Cl)N=C(Nc2nc3ccccc3o2)N1 [Compound 209, (S)-2-(2-(benzo[d]oxazol-2-ylamino)-4-(2-chlorophenyl)-6-methyl-1,4-dihydropyrimidine-5-carboxamido)isonicotinic acid] | – | >30 | >74 | <1 1 × 10^−6 cm/sec | – | 19.3 | 19.3 | 12.2 | 12.2 | – | –
4 | CC1=C(C(=O)Nc2cc(C(=O)O)ccc2F)C(c2ccccc2Cl)N=C(Nc2nc3ccccc3o2)N1 (stereo not shown) [Compound 210, 3-(2-(benzo[d]oxazol-2-ylamino)-4-(2-chlorophenyl)-6-methyl-1,4-dihydropyrimidine-5-carboxamido)-4-fluorobenzoic acid] | – | >30 | 25.4 | 3.3 1 × 10^−6 cm/sec | – | – | 10.9 | – | 3.06 | – | –
5 | CC1=C(C(=O)Nc2cc(CO)ccn2)C(c2ccccc2Cl)N=C(Nc2nc3ccccc3o2)N1 (stereo not shown) [Compound 211, 2-(benzo[d]oxazol-2-ylamino)-4-(2-chlorophenyl)-N-(4-(hydroxymethyl)pyridin-2-yl)-6-methyl-1,4-dihydropyrimidine-5-carboxamide] | – | >30 | <1 | 109.6 1 × 10^−6 cm/sec | – | 9.68 | 9.68 | 3.06 | 3.06 | – | –
6 | CC1=C(C(=O)Nc2cc(C(N)=O)ccn2)C(c2ccccc2Cl)N=C(Nc2nc3ccccc3o2)N1 (stereo not shown) [Compound 212, 2-(benzo[d]oxazol-2-ylamino)-N-(4-carbamoylpyridin-2-yl)-4-(2-chlorophenyl)-6-methyl-1,4-dihydropyrimidine-5-carboxamide] | – | >30 | <1 | 156.0 1 × 10^−6 cm/sec | – | 7.69 | 7.69 | 2.43 | 2.43 | – | –

The remaining lines, values ahead:

Row | mGALK (μM) (recombinant mouse GALK1; [3]) | Metab. Stabil. (m) [1] [m] | Sol. [2] [µg/mL] | Perm. (1 × 10^−6 cm/sec) (PAMPA permeability) | hGALK (μM) (recombinant human GALK1; [4]) | IC50 (recombinant mouse GALK1; [5]) [µM] | IC50 (recombinant mouse GALK1; [6]) [µM] | IC50 (recombinant human GALK1; [7]) [µM] | IC50 (recombinant human GALK1; [8]) [µM] | mGALK IC50 (recombinant mouse GALK1; Tables 2-15, 35 μM ATP, 100 μM galactose, 1 h, bracketed figure after some values is undefined and not reported) | hGALK IC50 (recombinant human GALK1; Tables 2-15, 35 μM ATP, 100 μM galactose, 1 h, bracketed figure after some values (e.g. −1.2) is undefined and not reported) | SMILES
7 | – | >30 | <1 | 421.9 1 × 10^−6 cm/sec | – | 10.9 | 10.9 | 3.06 | 3.06 | – | – | CNC(=O)c1ccnc(NC(=O)C2=C(C)NC(Nc3nc4ccccc4o3)=NC2c2ccccc2Cl)c1 (stereo not shown) [Compound 213, 2-(benzo[d]oxazol-2-ylamino)-4-(2-chlorophenyl)-6-methyl-N-(4-(methylcarbamoyl)pyridin-2-yl)-1,4-dihydropyrimidine-5-carboxamide]
8 | – | >30 | <1 | 173.5 1 × 10^−6 cm/sec | – | 10.9 | 10.9 | – | 4.32 | – | – | CC1=C(C(=O)Nc2ccccn2)C(c2ccccc2Cl)N=C(Nc2nc3ccccc3o2)N1 (stereo not shown) [Compound 214, 2-(benzo[d]oxazol-2-ylamino)-4-(2-chlorophenyl)-6-methyl-N-(pyridin-2-yl)-1,4-dihydropyrimidine-5-carboxamide]
9 | – | 1.4 | <1 | 99.3 1 × 10^−6 cm/sec | – | 12.2 | 12.2 | 7.69 | 7.69 | – | – | COc1ccccc1CNC(=O)C1=C(C)NC(Nc2nc3ccccc3o2)=NC1c1ccccc1Cl (stereo not shown) [Compound 215, 2-(benzo[d]oxazol-2-ylamino)-4-(2-chlorophenyl)-N-(2-methoxybenzyl)-6-methyl-1,4-dihydropyrimidine-5-carboxamide]
10 | in- active | 11.91 | <1 | 25.8 1 × 10^−6 cm/sec | in- active | – | – | – | – | inactive | inactive | CC1=C(C(=O)NCc2ccc(Cl)cc2)C(c2ccccc2Cl)N=C(Nc2nc3ccccc3o2)N1 (stereo not shown) [Compound 218, 2-(benzo[d]oxazol-2-ylamino)-4-(2-chlorophenyl)-N-(4-chlorobenzyl)-6-methyl-1,4-dihydropyrimidine-5-carboxamide]
11 | – | 6.557 | 1.8 | 1424.0 1 × 10^−6 cm/sec | – | – | 19.3 | 8.63 | 8.63 | – | – | CC1=C(C(=O)NCc2ccccn2)C(c2ccccc2Cl)N=C(Nc2nc3ccccc3o2)N1 (stereo not shown) [Compound 220, 2-(benzo[d]oxazol-2-ylamino)-4-(2-chlorophenyl)-6-methyl-N-(pyridin-2-ylmethyl)-1,4-dihydropyrimidine-5-carboxamide]
12 | – | 1.582 | <1 | 1248.8 1 × 10^−6 cm/sec | – | – | 19.3 | 6.85 | 6.85 | – | – | CC1=C(C(=O)NCc2cccnc2)C(c2ccccc2Cl)N=C(Nc2nc3ccccc3o2)N1 (stereo not shown) [Compound 221, 2-(benzo[d]oxazol-2-ylamino)-4-(2-chlorophenyl)-6-methyl-N-(pyridin-3-ylmethyl)-1,4-dihydropyrimidine-5-carboxamide]
13 | – | 1.742 | <1 | 462.5 1 × 10^−6 cm/sec | – | 4.32 | 4.32 | 6.85 | 6.85 | – | – | COC(=O)c1ccccc1CNC(=O)C1=C(C)NC(Nc2nc3ccccc3o2)=NC1c1ccccc1Cl (stereo not shown) [Compound 222, methyl 2-((2-(benzo[d]oxazol-2-ylamino)-4-(2-chlorophenyl)-6-methyl-1,4-dihydropyrimidine-5-carboxamido)methyl)benzoate]
14 | – | 8.495 | <1 | 543.4 1 × 10^−6 cm/sec | – | 8.63 | 8.63 | 4.32 | 4.32 | – | – | COC(=O)c1ccc(CNC(=O)C2=C(C)NC(Nc3nc4ccccc4o3)=NC2c2ccccc2Cl)cc1 (stereo not shown) [Compound 223, methyl 4-((2-(benzo[d]oxazol-2-ylamino)-4-(2-chlorophenyl)-6-methyl-1,4-dihydropyrimidine-5-carboxamido)methyl)benzoate]
